Earlier results, collected in patent US12270126B2, “Wound dressing” (University of Central Oklahoma, priority 2019, dated 2025).

Experiments:
[1] = test system: Bacillus subtilis (B. subtilis)
[2] = test system: Methicillin-resistant S. aureus (MRSA)

Measured: inhibitory effect on microorganism

Cc1ccc(C(C)C)cc1O [carvacrol]
inhibitory effect: [1] | [2] | Saccharomyces cerevisiae | E. coli

Cc1ccc(C(C)C)c(O)c1 [thymol]
inhibitory effect: [1] | [2] | Saccharomyces cerevisiae | E. coli
